Columns and labels:
Format in all cases: biochemical
HIV-I DNA [1] = experiment: Example 2: leuco dye color scores of amplified target in pouches; details: dye added prior to amplification
Procedure: The method of this invention was compared to an amplification and detection method outside the scope of this invention, which was carried out using YOYO-1 (1 μmolar final concentration), a tetravalent fluorescent dye, in the buffered solution described above. This dye has the following structure: [drawing 4]
Amplification was carried out using self-contained chemical pouches such as those described in U.S. Pat. No. 5,229,297 (Schnipelsky et al). Those pouches contained the capture probe SEQ ID NO:5 attached to particles which were immobilized in a detection channel where reactions can take place.
The pouches were loaded with reagents, as follows:
The PCR reaction mixture of Example 1 (except the DNA polymerase) was made to a volume of 5472 μl. The resulting mixture was aliquoted into tubes A, B and C (1824 μl each) representing Samples A, B and C, respectively.
The sample in Tube A was diluted with buffer (220 μl) and subjected to amplification without any fluorescence dye present. The dye was added at the end of amplification for quantitative detection of the resulting products.
In addition to the PCR reagents, the sample in Tube B contained YOYO-1 fluorescent dye (0.1 μmolar) which had been added prior to amplification (220 μl of a 10 μmolar solution).
The sample in Tube C also contained YO-PRO-1 fluorescent dye (0.1 μmolar) which had been added prior to amplification (220 μl of a 10 μmolar solution).
The DNA polymerase (88 μl) and target HIV-I DNA target nucleic acid (220 μl) were then added to each tube, and the contents of the each of the three tubes were used to fill the PCR reagent compartment of eight pouches.
Amplification was carried out using the same procedures as in Example 1. The PCR protocol was similarly carried out for 40 cycles using a thermal cycler as follows:
1) Preheat to denature at 95° C. for 60 seconds,
priming and extension for 40 seconds at 63.5° C., and denaturation for 10 seconds at 95° C., and
3) final denaturation for 60 seconds at 95° C.
The results of amplification were detected in three ways: (1) color dye scores visually evaluated as 0 (no signal) to 10 (highest signal density), (2) ethidium bromide stained electrophoretic gels, and (3) fluorescence measured on a commercially available Perkin Elmer fluorimeter.
The noted color scores were obtained by using immobilized capture probes in the pouches with which the amplified target hybridized during incubation for 5 minutes at 42° C. The immobilized target was contacted with the conjugate solution (identified above) for 1 minute at 30° C., followed by the wash solution for 1 minute at 55° C. The leuco dye solution was then added at 30° C. and the resulting color signal was observed after two minutes incubation at 30° C. […]

HIV-I DNA [2] = experiment: Example 2: ethidium bromide stained electrophoretic gels of amplification products; details: dye added prior to amplification
Procedure: The method of this invention was compared to an amplification and detection method outside the scope of this invention, which was carried out using YOYO-1 (1 μmolar final concentration), a tetravalent fluorescent dye, in the buffered solution described above. This dye has the following structure: [drawing 4] The PCR reaction mixture of Example 1 (except the DNA polymerase) was made to a volume of 5472 μl. The resulting mixture was aliquoted into tubes A, B and C (1824 μl each) representing Samples A, B and C, respectively. The sample in Tube A was diluted with buffer (220 μl) and subjected to amplification without any fluorescence dye present. The dye was added at the end of amplification for quantitative detection of the resulting products. In addition to the PCR reagents, the sample in Tube B contained YOYO-1 fluorescent dye (0.1 μmolar) which had been added prior to amplification (220 μl of a 10 μmolar solution). The sample in Tube C also contained YO-[…] fluorescent dye (0.1 μmolar) which had been added prior to amplification (220 μl of a 10 μmolar solution). The DNA polymerase (88 μl) and target HIV-I DNA target nucleic acid (220 μl) were then added to each tube, and the contents of the each of the three tubes were used to fill the PCR reagent compartment of eight pouches. Amplification was carried out using the same procedures as in Example 1. […] follows: The results of amplification were detected in three ways: (1) color dye scores visually evaluated as 0 (no signal) to 10 (highest signal density), (2) ethidium bromide stained electrophoretic gels, and (3) fluorescence measured on a commercially available Perkin Elmer fluorimeter. Electrophoresis was carried out using commercially available NuSieve 1.5%/Seakem Agarose 1% gels (modified to 2.5% agarose) and ethidium bromide stain. The samples were applied to the gels in conventional TBE buffer (4 μl/100 μl). Three replicate assays of each sample (A, B and C) were carried out using each detection means. The average result for each detection means was as follows: […]

HIV-I DNA [3] = experiment: Example 3: fluorescence after amplification with dye; usefulness / PCR inhibition
Procedure: The primers used in Example 3 had the following sequences which are complementary to the gag region of HIV-I DNA: Amplification experiments like those of Example 2 were also carried out to evaluate the usefulness of several other conventional fluorescent dye stains. In these assays, primers identified above as SEQ ID NO:3 and SEQ ID NO:4 were used, as well as the probe identified as SEQ ID NO:6. […] Fluorescence was determined as described in Example 2 except that all amplified samples were mixed with a solution of YOYO-1 (0.1 μmolar) to provide a common minimum threshold of signal.

SMILES: C[n+]1c(C=C2C=CN(CCC[N+](C)(C)C)c3ccccc32)oc2ccccc21 [Compound E]
- effect of dye on amplification (color scores) (HIV-I DNA [1]): not adversely affected
- Average Color Score (HIV-I DNA [1]; leuco dye, 0 (no signal) to 10 (highest signal density), 40 cycles): 6
- effect of dye on amplification (gel) (HIV-I DNA [2]): allowed amplification to proceed
- Positive/negative Gel Bands (HIV-I DNA [2]; 40 cycles): 5 Positives out of 5 bands
- Fluorescent Signal (HIV-I DNA [3]; amplified samples mixed with YOYO-1 (0.1 μmolar)): 16
- usefulness of dye / inhibition of PCR (HIV-I DNA [3]; dye in amplification): useful

Reference: patent US5563037A, “Homogeneous method for assay of double-stranded nucleic acids using fluorescent dyes and kit useful therein” (Johnson & Johnson Clinical Diagnostics, Inc., priority 1995, dated 1996)
